Test results: patent publication US20170334899A1, “AMINO-SUBSTITUTED ISOTHIAZOLES” (Bayer Pharma Aktiengesellschaft, priority 2014, published 2017)

Assays:
[1] = test system: human cervical tumor cell line HeLa (ATCC CCL-2); experiment: SAC-Formation - Nocodazole-Induced Assay; type: cell-based; settings: Homo sapiens, HeLa, 24 h, HeLa cells, nocodazole 0.1 μg/ml together with test compound, decrease of mitotic cells (phospho-histone H3 Ser10)
How it was run: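 HeLa cells, plated overnight, were treated 24 h at 37 °C with nocodazole (0.1 μg/ml final) plus test compound (0.005–20 μM, 0.5% DMSO) added at the same time. After fixation, anti-phospho-histone H3 Ser10 and Hoechst staining gave the mitotic cell fraction by imaging. Values came from four-parameter Hill fits.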

CDK2/CycE = target: T1, CDK2/CycE (Homo sapiens, UniProt P24941); experiment: CDK2/CycE kinase assay (TR-FRET); type: biochemical; settings: avg, read-out: CDK2 avg (IC50 [mol/l])
T1 construct: GST; purchased ProQinase GmbH (Freiburg, Germany); host or cells: insect cells (Sf9)
How it was run: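 GST-tagged human CDK2 and CycE from Sf9 cells, preincubated 15 min with compound, then 25 min at 22° C. with 10 μM ATP and 0.75 μM biotinylated Rb-derived peptide (final). Phospho-substrate read by TR-FRET (anti-pRB pSer807/pSer811, Eu anti-mouse IgG, streptavidin-XL665), 665/620 nm ratio, normalised to no-inhibitor and no-enzyme controls.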

SMILES	IC50 [1]	IC50 (CDK2/CycE)
Cc1nsc(Nc2cnc(C(F)(F)F)cn2)c1C(=O)Nc1ccc(F)c(OC2CCN(CCF)CC2)c1 [Example 266, N-(4-fluoro-3-{[1-(2-fluoroethyl)piperidin-4-yl]oxy}phenyl)-3-methyl-5-{[5-(trifluoromethyl)pyrazin-2-yl]amino}-1,2-thiazole-4-carboxamide]	0.15 µM	> 20 µM
Cc1nsc(Nc2cncc(C(F)(F)F)n2)c1C(=O)Nc1ccc(F)c(OC2CCN(CC(F)(F)F)CC2)c1 [Example 267, N-(4-fluoro-3-{[1-(2,2,2-trifluoroethyl)piperidin-4-yl]oxy}phenyl)-3-methyl-5-{[6-(trifluoromethyl)pyrazin-2-yl]amino}-1,2-thiazole-4-carboxamide]	0.047 µM	> 20 µM
Cc1nsc(Nc2cncc(C(F)(F)F)n2)c1C(=O)Nc1ccc(F)c(OC2CCN(CC(F)F)CC2)c1 [Example 268, N-(3-{[1-(2,2-difluoroethyl)piperidin-4-yl]oxy}-4-fluorophenyl)-3-methyl-5-{[6-(trifluoromethyl)pyrazin-2-yl]amino}-1,2-thiazole-4-carboxamide]	0.038 µM	> 20 µM
Cc1nsc(Nc2cncc(C(F)(F)F)n2)c1C(=O)Nc1ccc(F)c(OC2CCN(CCF)CC2)c1 [Example 269, N-(4-fluoro-3-{[1-(2-fluoroethyl)piperidin-4-yl]oxy}phenyl)-3-methyl-5-{[6-(trifluoromethyl)pyrazin-2-yl]amino}-1,2-thiazole-4-carboxamide]	0.12 µM	> 20 µM
Cc1nsc(Nc2cnc(C(F)(F)F)cn2)c1C(=O)Nc1ccc(C(=O)NC2CN(CC(F)(F)F)C2)cc1 [Example 270, 3-methyl-N-(4-{[1-(2,2,2-trifluoroethyl)azetidin-3-yl]carbamoyl}phenyl)-5-{[5-(trifluoromethyl)pyrazin-2-yl]amino}-1,2-thiazole-4-carboxamide]	0.95 µM	> 20 µM
Cc1nsc(Nc2cnc(C(F)(F)F)cn2)c1C(=O)Nc1ccc(C(=O)NC2CN(CC(F)F)C2)cc1 [Example 271, N-(4-{[1-(2,2-difluoroethyl)azetidin-3-yl]carbamoyl}phenyl)-3-methyl-5-{[5-(trifluoromethyl)pyrazin-2-yl]amino}-1,2-thiazole-4-carboxamide]	1.1 µM	> 20 µM
Cc1nsc(Nc2cncc(C(F)(F)F)n2)c1C(=O)Nc1ccc(C(=O)N2CCN(CC(F)(F)F)CC2)cc1 [Example 272, 3-methyl-N-(4-{[4-(2,2,2-trifluoroethyl)piperazin-1-yl]carbonyl}phenyl)-5-{[6-(trifluoromethyl)pyrazin-2-yl]amino}-1,2-thiazole-4-carboxamide]	0.23 µM	> 20 µM
Cc1nsc(Nc2cncc(C(F)(F)F)n2)c1C(=O)Nc1ccc(C(=O)N2CCN(CC(F)F)CC2)cc1 [Example 273, N-(4-{[4-(2,2-difluoroethyl)piperazin-1-yl]carbonyl}phenyl)-3-methyl-5-{[6-(trifluoromethyl)pyrazin-2-yl]amino}-1,2-thiazole-4-carboxamide]	1.1 µM	> 20 µM
Cc1nsc(Nc2cncc(C(F)(F)F)n2)c1C(=O)Nc1ccc(C(=O)N2CCN(CCF)CC2)cc1 [Example 274, N-(4-{[4-(2-fluoroethyl)piperazin-1-yl]carbonyl}phenyl)-3-methyl-5-{[6-(trifluoromethyl)pyrazin-2-yl]amino}-1,2-thiazole-4-carboxamide]	0.14 µM	5.4 µM
CCN1CCN(C(=O)c2ccc(NC(=O)c3c(C)nsc3Nc3cncc(C(F)(F)F)n3)cc2)CC1 [Example 275, N-{4-[(4-ethylpiperazin-1-yl)carbonyl]phenyl}-3-methyl-5-{[6-(trifluoromethyl)pyrazin-2-yl]amino}-1,2-thiazole-4-carboxamide]	0.84 µM	8.4 µM
Cc1nsc(Nc2cncc(C(F)(F)F)n2)c1C(=O)Nc1ccc(OCCO)nc1 [Example 276, N-[6-(2-hydroxyethoxy)pyridin-3-yl]-3-methyl-5-{[6-(trifluoromethyl)pyrazin-2-yl]amino}-1,2-thiazole-4-carboxamide]	0.35 µM	> 20 µM
Cc1nsc(Nc2cnc(C(F)(F)F)cn2)c1C(=O)Nc1ccc(OCCO)nc1 [Example 277, N-[6-(2-hydroxyethoxy)pyridin-3-yl]-3-methyl-5-{[5-(trifluoromethyl)pyrazin-2-yl]amino}-1,2-thiazole-4-carboxamide]	0.65 µM	> 20 µM
Cc1nsc(Nc2cncc(C(F)(F)F)n2)c1C(=O)Nc1ccc(OCCCO)nc1 [Example 278, N-[6-(3-hydroxypropoxy)pyridin-3-yl]-3-methyl-5-{[6-(trifluoromethyl)pyrazin-2-yl]amino}-1,2-thiazole-4-carboxamide]	0.19 µM	> 20 µM

Next, values leading:

IC50 [1]	IC50 (CDK2/CycE)	SMILES
0.12 µM	> 20 µM	Cc1nsc(Nc2cnc(C(F)(F)F)cn2)c1C(=O)Nc1ccc(OCCCO)nc1 [Example 279, N-[6-(3-hydroxypropoxy)pyridin-3-yl]-3-methyl-5-{[5-(trifluoromethyl)pyrazin-2-yl]amino}-1,2-thiazole-4-carboxamide]
0.67 µM	11 µM	Cc1nsc(Nc2cncc(C(F)(F)F)n2)c1C(=O)Nc1ccc(C(=O)NC2CN(CC(F)(F)F)C2)cc1 [Example 280, 3-methyl-N-(4-{[1-(2,2,2-trifluoroethyl)azetidin-3-yl]carbamoyl}phenyl)-5-{[6-(trifluoromethyl)pyrazin-2-yl]amino}-1,2-thiazole-4-carboxamide]
1.2 µM	> 20 µM	Cc1nsc(Nc2cnc3ccccc3n2)c1C(=O)Nc1cccc(NS(=O)(=O)C2CCN(CC(F)(F)F)CC2)c1 [Example 281, 3-methyl-5-(quinoxalin-2-ylamino)-N-[3-({[1-(2,2,2-trifluoroethyl)piperidin-4-yl]sulfonyl}amino)phenyl]-1,2-thiazole-4-carboxamide]
6.7 µM	> 20 µM	Cc1nsc(Nc2cnc3ccccc3n2)c1C(=O)Nc1cccc(NS(=O)(=O)C2CCN(CC(F)F)CC2)c1 [Example 282, N-[3-({[1-(2,2-difluoroethyl)piperidin-4-yl]sulfonyl}amino)phenyl]-3-methyl-5-(quinoxalin-2-ylamino)-1,2-thiazole-4-carboxamide]
0.076 µM	> 20 µM	Cc1nsc(Nc2cnc(C(F)(F)F)cn2)c1C(=O)Nc1cccc(NC(=O)OC(C)(C)C)c1 [Example 284, 3-tert-butyl (3-{[(3-methyl-5-{[5-(trifluoromethyl)pyrazin-2-yl]amino}-1,2-thiazol-4-yl)carbonyl]amino}phenyl)carbamate]
2.2 µM	> 20 µM	Cc1nsc(Nc2cnc3ccccc3n2)c1C(=O)Nc1cccc(NS(=O)(=O)C2CN(CC(F)(F)F)C2)c1 [Example 285, 3-methyl-5-(quinoxalin-2-ylamino)-N-[3-({[1-(2,2,2-trifluoroethyl)azetidin-3-yl]sulfonyl}amino)phenyl]-1,2-thiazole-4-carboxamide]
7.2 µM	> 20 µM	Cc1nsc(Nc2cnc3ccccc3n2)c1C(=O)Nc1cccc(NS(=O)(=O)C2CN(CCF)C2)c1 [Example 287, N-[3-({[1-(2-fluoroethyl)azetidin-3-yl]sulfonyl}amino)phenyl]-3-methyl-5-(quinoxalin-2-ylamino)-1,2-thiazole-4-carboxamide]
7.7 µM	> 20 µM	Cc1nsc(Nc2cnc3ccccc3n2)c1C(=O)Nc1cccc(NS(=O)(=O)C2CN(CCC(F)(F)F)C2)c1 [Example 288, 3-methyl-5-(quinoxalin-2-ylamino)-N-[3-({[1-(3,3,3-trifluoropropyl)azetidin-3-yl]sulfonyl}amino)phenyl]-1,2-thiazole-4-carboxamide]
2 µM	19 µM	Cc1nsc(Nc2cnc3ccccc3n2)c1C(=O)Nc1cccc(NS(=O)(=O)C2CCN(C(=O)OC(C)(C)C)C2)c1 (stereo not shown) [Example 290, tert-butyl 3-{[3-({[3-methyl-5-(quinoxalin-2-ylamino)-1,2-thiazol-4-yl]carbonyl}amino)phenyl]sulfamoyl} pyrrolidine-1-carboxylate]
1.4 µM	14 µM	Cc1nsc(Nc2cnc3ccccc3n2)c1C(=O)Nc1cccc(NS(=O)(=O)C2CCCN(C(=O)OCc3ccccc3)C2)c1 (stereo not shown) [Example 291, benzyl 3-{[3-({[3-methyl-5-(quinoxalin-2-ylamino)-1,2-thiazol-4-yl]carbonyl}amino)phenyl]sulfamoyl} piperidine-1-carboxylate]
0.98 µM	> 20 µM	Cc1nsc(Nc2cnc(C(F)(F)F)cn2)c1C(=O)Nc1ccc(OCCCNCC(F)(F)F)nc1 [Example 292, 3-methyl-N-(6-{3-[(2,2,2-trifluoroethyl)amino]propoxy}pyridin-3-yl)-5-{[5-(trifluoromethyl)pyrazin-2-yl]amino}-1,2-thiazole-4-carboxamide]
3.1 µM	> 20 µM	Cc1nsc(Nc2cnc(C(F)(F)F)cn2)c1C(=O)Nc1ccc(OCCCNCC(F)F)nc1 [Example 293, N-(6-{3-[(2,2-difluoroethyl)amino]propoxy}pyridin-3-yl)-3-methyl-5-{[5-(trifluoromethyl)pyrazin-2-yl]amino}-1,2-thiazole-4-carboxamide]
0.45 µM	> 20 µM	Cc1nsc(Nc2cnc(C(F)(F)F)cn2)c1C(=O)Nc1ccc(OCCCNCCC(F)(F)F)nc1 [Example 294, 3-methyl-5-{[5-(trifluoromethyl)pyrazin-2-yl]amino}-N-(6-{3-[(3,3,3-trifluoropropyl)amino]propoxy}pyridin-3-yl)-1,2-thiazole-4-carboxamide]
